Measured values taken from paper PMC5733478, “A Non-imaging High Throughput Approach to Chemical Library Screening at the Unmodified Adenosine-A3 Receptor in Living Cells” (Frontiers in Pharmacology, 2017).
Where a name gives a salt, the structure may show the parent alone.

molecular target: T1, human A3AR (Homo sapiens, UniProt P0DMS8); test: LOPAC library primary screen: single concentration (10 μM) inhibition of 25 nM CA200645 binding, PHERAstar FS; conditions: not given
T1 construct: expressed in transfected cells
T1 sequence (P0DMS8 1-318): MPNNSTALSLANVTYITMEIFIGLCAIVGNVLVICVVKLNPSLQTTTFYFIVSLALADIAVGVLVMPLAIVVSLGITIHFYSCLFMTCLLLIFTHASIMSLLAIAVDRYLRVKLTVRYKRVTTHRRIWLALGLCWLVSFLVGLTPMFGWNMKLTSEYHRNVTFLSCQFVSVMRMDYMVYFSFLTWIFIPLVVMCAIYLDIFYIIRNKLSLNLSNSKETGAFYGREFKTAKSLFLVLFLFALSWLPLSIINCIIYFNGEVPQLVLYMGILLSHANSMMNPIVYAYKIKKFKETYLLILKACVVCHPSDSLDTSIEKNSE

Structure (SMILES) | % 25 nM CA200645 binding [%]
N.N.O=C([O-])C1(C(=O)[O-])CCC1.[Pt+2] [Carboplatin] | 97.7 ± 5.9
O=NN(CCCl)C(=O)NCCCl [Carmustine] | 102.2 ± 1.0
COc1ccccc1OCCNCC(O)COc1cccc2[nH]c3ccccc3c12 (stereo not drawn) [Carvedilol] | 100.8 ± 14.2
N[C@@H](C(=O)N[C@@H]1C(=O)N2C(C(=O)O)=C(Cl)CS[C@H]12)c1ccccc1 [Cefaclor] | 79.3 ± 20.7
Cc1nnc(SCC2=C(C(=O)O)N3C(=O)[C@@H](NC(=O)Cn4cnnn4)[C@H]3SC2)s1 [Cefazolin sodium] | 96.3 ± 4.6
CO[C@@]1(NC(=O)CSCC#N)C(=O)N2C(C(=O)O)=C(CSc3nnnn3C)CS[C@@H]21 [Cefmetazole sodium] | 84.6 ± 22.3
CO/N=C(\C(=O)N[C@@H]1C(=O)N2C(C(=O)O)=C(COC(C)=O)CS[C@H]12)c1csc(N)n1 [Cefotaxime sodium] | 94.2 ± 6.2
NC(=O)c1cc[n+](CC2=C(C(=O)[O-])N3C(=O)[C@@H](NC(=O)C(c4ccccc4)S(=O)(=O)[O-])[C@H]3SC2)cc1.O.[Na+] (stereo partly drawn) [Cefsulodin sodium salt hydrate] | 100.8 ± 6.6
CO/N=C(\C(=O)N[C@@H]1C(=O)N2C(C(=O)O)=C(CSc3nc(=O)c(=O)[nH]n3C)CS[C@H]12)c1csc(N)n1 [Ceftriaxone sodium] | 100.5 ± 11.9
Cc1ccc(-c2cc(C(F)(F)F)nn2-c2ccc(S(N)(=O)=O)cc2)cc1 [Celecoxib] | 72.6 ± 20.4
CN(C)CCOC(=O)COc1ccc(Cl)cc1 [Centrophenoxine hydrochloride] | 90.4 ± 28.8
CC1=C(C(=O)O)N2C(=O)[C@@H](NC(=O)[C@H](N)c3ccccc3)[C@H]2SC1.O [Cephalexin hydrate] | 101.0 ± 8.0
CC(=O)OCC1=C(C(=O)[O-])N2C(=O)[C@@H](NC(=O)CCC[C@@H](N)C(=O)[O-])[C@H]2SC1.[Zn+2] [Cephalosporin C zinc salt] | 86.9 ± 28.2
CC(=O)OCC1=C(C(=O)O)N2C(=O)[C@@H](NC(=O)Cc3cccs3)[C@H]2SC1 [Cephalothin sodium] | 104.6 ± 12.0
CC1=C(C(=O)O)N2C(=O)[C@@H](NC(=O)[C@H](N)C3=CCC=CC3)[C@H]2SC1 [Cephradine] | 95.6 ± 1.1
O=C(O)COCCN1CCN(C(c2ccccc2)c2ccc(Cl)cc2)CC1 (stereo not drawn) [Cetirizine dihydrochloride] | 98.6 ± 19.3
COc1ccc2c(c[n+](C)c3c4cc5c(cc4ccc23)OCO5)c1OC [Chelerythrine chloride] | 73.9 ± 3.7
O=C(O)c1cc(O)cc(C(=O)O)n1 [Chelidamic acid] | 110.2 ± 8.8
Cc1ncsc1CCCl.Cl [Chlormethiazole hydrochloride] | 84.7 ± 21.7
CN1C(=O)CCS(=O)(=O)C1c1ccc(Cl)cc1 (stereo not drawn) [Chlormezanone] | 101.4 ± 10.9
NS(=O)(=O)c1cc2c(cc1Cl)N=CNS2(=O)=O [Chlorothiazide] | 107.7 ± 8.4

Structure (SMILES) | % 25 nM CA200645 binding [%]
CN(C)CCCN1c2ccccc2Sc2ccc(Cl)cc21 [Chlorpromazine hydrochloride] | 92.2 ± 10.3
CCCNC(=O)NS(=O)(=O)c1ccc(Cl)cc1 [Chlorpropamide] | 97.6 ± 7.8
CN(C)CC/C=C1/c2ccccc2Sc2ccc(Cl)cc21 [Chlorprothixene hydrochloride] | 96.6 ± 7.7
C[N+](C)(C)CCO.[Br-] [Choline bromide] | 100.0 ± 6.6
O=C(O)CCC(=O)O.c1ccc(C2(c3ccccc3)CC2C2=NCCN2)cc1 (stereo not drawn) [Cibenzoline succinate] | 95.2 ± 7.2
COCCOC(=O)C1=C(C)NC(C)=C(C(=O)OC/C=C/c2ccccc2)C1c1cccc([N+](=O)[O-])c1 (stereo not drawn) [Cilnidipine] | 67.0 ± 19.0
O=C1CCc2cc(OCCCCc3nnnn3C3CCCCC3)ccc2N1 [Cilostazol] | 105.8 ± 41.7
CN/C(=N/CCSCc1nc[nH]c1C)NC#N [Cimetidine] | 94.0 ± 4.0
CCn1nc(C(=O)O)c(=O)c2cc3c(cc21)OCO3 [Cinoxacin] | 96.9 ± 2.7
CC(C)(Oc1ccc(C2CC2(Cl)Cl)cc1)C(=O)O (stereo not drawn) [Ciprofibrate] | 98.7 ± 5.2
Cl.O=C(c1ccc(OCCCc2cnc[nH]2)cc1)C1CC1 [Ciproxifan hydrochloride] | 102.4 ± 6.2
N.N.[Cl][Pt][Cl] [Cisplatin] | 69.0 ± 8.2
CN(C)CCCC1(c2ccc(F)cc2)OCc2cc(C#N)ccc21 (stereo not drawn) [Citalopram hydrobromide] | 97.2 ± 4.4
Cl.Clc1ccc(Cn2c(CN3CCCC3)nc3ccccc32)cc1 [Clemizole hydrochloride] | 99.7 ± 8.2
O=P(O)(O)C(Cl)(Cl)P(=O)(O)O [Clodronic acid] | 98.4 ± 3.5
CN(C)CCCN1c2ccccc2CCc2ccc(Cl)cc21 [Clomipramine hydrochloride] | 99.4 ± 3.8
Clc1cccc(Cl)c1N=C1NCCN1 [Clonidine hydrochloride] | 101.9 ± 9.8
Clc1ccccc1C(c1ccccc1)(c1ccccc1)n1ccnc1 [Clotrimazole] | 74.0 ± 15.0
C[C@]12C[C@H](O)[C@H]3[C@@H](CCC4=CC(=O)CC[C@@]43C)[C@@H]1CC[C@@H]2C(=O)CO [Corticosterone] | 99.8 ± 5.3
CC(=O)OCC(=O)[C@@]1(O)CC[C@H]2[C@@H]3CCC4=CC(=O)CC[C@]4(C)[C@H]3C(=O)C[C@@]21C [Cortisone 21-acetate] | 92.1 ± 5.7
C[C@]12CCC(=O)C=C1CC[C@@H]1[C@@H]2C(=O)C[C@@]2(C)[C@H]1CC[C@]2(O)C(=O)CO [Cortisone] | 94.0 ± 5.3

Structure (SMILES) | % 25 nM CA200645 binding [%]
Cc1cc(NC2CCCCC2)nc(-n2nc(C)cc2C)n1 [CyPPA] | 68.8 ± 15.9
CN(C)CCC=C1c2ccccc2C=Cc2ccccc21 [Cyclobenzaprine hydrochloride] | 85.3 ± 24.5
O=P1(N(CCCl)CCCl)NCCCO1 (stereo not drawn) [Cyclophosphamide monohydrate] | 79.2 ± 18.9
NS(=O)(=O)c1cc2c(cc1Cl)NC(C1CC3C=CC1C3)NS2(=O)=O (stereo not drawn) [Cyclothiazide] | 93.2 ± 4.7
CN1CCC(=C2c3ccccc3C=Cc3ccccc32)CC1 [Cyproheptadine hydrochloride] | 96.0 ± 5.5
CC(=O)O[C@]1(C(C)=O)CC[C@H]2[C@@H]3C=C(Cl)C4=CC(=O)[C@@H]5C[C@@H]5[C@]4(C)[C@H]3CC[C@@]21C [Cyproterone acetate] | 95.6 ± 2.1
Cl.NCCS [Cysteamine hydrochloride] | 89.3 ± 6.0
S=C([S-])OC1CC2CC1C1CCCC21.[K+] [D-609 potassium] | 95.5 ± 4.1
N[C@H](CO)C(=O)O [D-Serine] | 100.2 ± 11.0
OC[C@H]1OC(n2cnc3ccccc32)[C@H](O)[C@@H]1O (stereo partly drawn) [D-ribofuranosylbenzimidazole] | 98.4 ± 15.0
O=C1NC(=O)c2cc(Nc3ccccc3)c(Nc3ccccc3)cc21 [DAPH] | 31.8 ± 9.9
Clc1ccc(N2C[C@H]3CC[C@@H](C2)N3)nn1 [DBO-83] | 97.7 ± 11.0
CCn1c(=O)[nH]c2cc(Cl)c(Cl)cc21 [DCEBIO] | 87.8 ± 8.9
Fc1cccc(/C=N/N=C/c2cccc(F)c2)c1 [DFB] | 94.8 ± 1.4
CCC(=O)N1CCN(C(=O)c2ccccc2)CC1 [DM 235] | 105.1 ± 10.7
O=[N+]([O-])c1cc2nc(O)c(O)nc2cc1[N+](=O)[O-] [DNQX] | 85.0 ± 6.8
CC(C)[C@@H]1CC[C@@H](C)C[C@@H]1P(=O)(c1ccccc1)c1ccccc1 [DPO-1] | 89.1 ± 3.8
O=c1c(-c2ccc(O)cc2)coc2cc(O)ccc12 [Daidzein] | 88.9 ± 6.0
C#C[C@]1(O)CC[C@H]2[C@@H]3CCC4=Cc5oncc5C[C@]4(C)[C@H]3CC[C@@]21C [Danazol] | 86.4 ± 9.1

same assay, conditions: 10 μM compound, 25 nM CA200645, A3AR CHO cells

Structure (SMILES) | hit in LOPAC primary screen (inhibited the binding of CA200645 by >40%)
C#CCn1c(=O)c2c(ncn2C)n(C)c1=O [DMPX, reference compound] | identified

same assay, conditions: % of control wells (1% DMSO and 25 nM CA200645); compounds at 10 µM; […]; mean ± SD, three experiments in duplicate

Structure (SMILES) | % 25 nM CA200645 binding [%]
CCOC(=O)C(C)(C)Oc1ccc(Cl)cc1 [Clofibrate] | 81.3 ± 24.9

same assay, conditions: % of control wells (1% DMSO and 25 nM CA200645); compounds at 10 µM; whole live cells expressing A3AR; mean ± SD, three experiments in duplicate

Structure (SMILES) | % 25 nM CA200645 binding [%]
NCCSSCCN [Cystamine dihydrochloride] | 96.6 ± 12.8

same assay, conditions: % of control wells (1% DMSO and 25 nM CA200645); compounds at 10 µM; whole live cells expressing the A3AR; mean ± SD, three experiments in duplicate

Structure (SMILES) | % 25 nM CA200645 binding [%]
CN(C(=O)CCCOc1ccc2[nH]c(=O)ccc2c1)C1CCCCC1 [Cilostamide] | 75.9 ± 3.4

same assay, conditions: compounds tested at 10 µM; % of control wells (1% DMSO and 25 nM CA200645); whole live cells expressing the A3AR; mean ± SD, three experiments in duplicate

Structure (SMILES) | % 25 nM CA200645 binding [%]
c1ccc(C2CC2)c(OCC2=NCCN2)c1 [Cirazoline hydrochloride] | 105.5 ± 7.7
C#CCN(C)CCCOc1ccc(Cl)cc1Cl [Clorgyline hydrochloride] | 96.0 ± 4.2
C[C@]12CCC(=O)C=C1CC[C@@H]1[C@@H]2CC[C@@]2(C)[C@H]1CC[C@]2(O)C(=O)CO [Cortexolone] | 110.6 ± 19.2
N[C@H](CCCP(=O)(O)O)C(=O)O [D(-)-2-Amino-5-phosphonopentanoic acid] | 109.4 ± 11.9
